Molecules are shown by their SMILES.

The record followed here is patent US20230303540A1 (Merck Sharp & Dohme LLC, priority 2020, published 2023).

In the assay the target is GST-tagged truncated human mutant G2019S LRRK2 (Homo sapiens, UniProt Q5S007, G2019S). Description: LRRK2 G2019S Km ATP LanthaScreen assay. The assay is classed as biochemical. The settings on record: 134 μM ATP (Km ATP), LRRKtide substrate, mean IC50 values; read-out: LRRK2 pIC50 (converted). The method in brief: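 LanthaScreen TR-FRET read with fluorescein-LRRKtide and 134 μM ATP (Km) in Tris pH 8.5/10 mM MgCl2 buffer. The enzyme was preincubated 15 min with compound at room temperature, and the reaction ran 90 min at ambient temperature. Stopped with EDTA plus Tb anti-phospho-LRRKtide antibody; the 520/495 nm ratio gave a 4-parameter logistic IC50, mean of several runs.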
In general terms: Time-resolved FRET reads energy transfer from a long-lived donor to a nearby acceptor.
In the case of `CC1(n2ncc(Nc3ncc4cc(Cl)c(N5CCC(N6CC(F)(F)C6)CC5)cc4n3)c2Cl)CC1` [Ex-4.32, 6-chloro-N-[5-chloro-1-(1-methylcyclopropyl)-1H-pyrazol-4-yl]-7-[4-(3,3-difluoroazetidin-1-yl)piperidin-1-yl]quinazolin-2-amine], the IC50 is 2.02 nM. Turning to `CC1(n2ncc(Nc3ncc4cc(Cl)c(N5CCC(N6CC(F)C6)CC5)cc4n3)c2Cl)CC1` [Ex-4.39, 6-chloro-N-[5-chloro-1-(1-methylcyclopropyl)-1H-pyrazol-4-yl]-7-[4-(3-fluoroazetidin-1-yl)piperidin-1-yl]quinazolin-2-amine], the IC50 was 0.625 nM.

With `CC1(N2CCN(c3cc4nc(Nc5cnn(CC6(C#N)CC6)c5)ncc4cc3Cl)CC2)COC1` [Ex-4.53, 1-{[4-({6-chloro-7-[4-(3-methyloxetan-3-yl)piperazin-1-yl]quinazolin-2-yl}amino)-1H-pyrazol-1-yl]methyl}cyclopropane-1-carbonitrile], the IC50 is 1.82 nM. Regarding `C[C@H]1COC(=O)N1c1ccc2cnc(Nc3cnn4c3CCCC4)nc2c1` [Ex-8.13, (4S)-4-methyl-3-{2-[(4,5,6,7-tetrahydropyrazolo[1,5-a]pyridin-3-yl)amino]quinazolin-7-yl}-1,3-oxazolidin-2-one], the IC50 is 0.625 nM.

In the case of `COCC12CC(n3cc(Nc4ncc5cc(Cl)c(N6C[C@H]7CC[C@@H](C6)[C@@]7(C)O)cc5n4)cn3)(C1)C2` [Ex-3.31, (8-syn)-3-[6-chloro-2-({1-[3-(methoxymethyl)bicyclo[1.1.1]pentan-1-yl]-1H-pyrazol-4-yl}amino)quinazolin-7-yl]-8-methyl-3-azabicyclo[3.2.1]octan-8-ol], the IC50 was 2.08 nM. Under `CC1CN(c2cc3nc(Nc4cnn(C5CC5)c4Cl)ncc3cc2Cl)CCN1CC(C)(C)O` (stereo not shown) [Ex-1.32, 1-(4-{6-chloro-2-[(5-chloro-1-cyclopropyl-1H-pyrazol-4-yl)amino]quinazolin-7-yl}-2-methylpiperazin-1-yl)-2-methylpropan-2-ol] stands 5.49 nM; under `CC(C)(O)CC(O)Cn1ncc(Nc2ncc3cc(Cl)c(N4CCC(C)(O)CC4)cc3n2)c1Cl` (stereo not shown) [Ex-6.5, 1-(5-chloro-4-{[6-chloro-7-(4-hydroxy-4-methylpiperidin-1-yl)quinazolin-2-yl]amino}-1H-pyrazol-1-yl)-4-methylpentane-2,4-diol], 27.3 nM; under `CC1(N2CCN(c3cc4nc(Nc5cnn(C6(C)CC6)c5)ncc4cc3Cl)CC2)COC1` [Ex-4.16, 6-chloro-N-[1-(1-methylcyclopropyl)-1H-pyrazol-4-yl]-7-[4-(3-methyloxetan-3-yl)piperazin-1-yl]quinazolin-2-amine], 1.12 nM.

Turning to `Cn1nc(Cl)cc1Nc1ncc2cc(Cl)c(N3CCN(C4(C)COCC4O)CC3)cc2n1` (stereo not shown), the IC50 is 5.97 nM. Under `Cc1cc2cnc(Nc3cnn(C45CC(C4)C5)c3C)nc2cc1N1CCN(C2(C)CCOC2)CC1` (single isomer, unassigned) [Ex-2.4, (3S,4S or 3R,4R)-N-(1-(bicyclo[1.1.1]pentan-1-yl)-5-methyl-1H-pyrazol-4-yl)-6-methyl-7-(4-(3-methyltetrahydrofuran-3-yl)piperazin-1-yl)quinazolin-2-amine] stands 0.279 nM; under `CCn1ncc(Nc2ncc3ccc(N4C(=O)OC[C@@H]4C)cc3n2)c1C` [Ex-7.1, (S)-3-(2-((1-ethyl-5-methyl-1H-pyrazol-4-yl)amino)quinazolin-7-yl)-4-methyloxazolidin-2-one], 0.989 nM.

With `CC(C)(O)Cn1cc(Nc2ncc3cc(Cl)c(N4C[C@H]5CC[C@@H](C4)[C@@]5(C)O)cc3n2)cn1` [Ex-3.32, (8-syn)-3-(6-chloro-2-{[1-(2-hydroxy-2-methylpropyl)-1H-pyrazol-4-yl]amino}quinazolin-7-yl)-8-methyl-3-azabicyclo[3.2.1]octan-8-ol], the IC50 is 0.393 nM.

With `OC1CN(C2CCN(c3cc4nc(Nc5cnn(C6CC6)c5Cl)ncc4cc3Cl)CC2)C1` [Ex-1.37, 1-(1-{6-chloro-2-[(5-chloro-1-cyclopropyl-1H-pyrazol-4-yl)amino]quinazolin-7-yl}piperidin-4-yl)azetidin-3-ol], the IC50 is 1.71 nM.
